Data published in patent US20260224758A1, “ALPHA-SYNUCLEIN BINDERS AND METHODS OF USE” (Merck Sharp & Dohme LLC, priority 2023, published 2026).

Assays:
[1] = molecular target: T1, triton-extracted alpha-synuclein from PD Tissue (Homo sapiens, UniProt P37840); experiment: Alpha-synuclein tissue homogenate binding assay (Assay 1), displacement of [^3H]-1000; settings: for Selectivity ratio (Assay 2/Assay 1): Aβ Tissue Ki / α-synuclein Tissue Ki; for Ki: insoluble fraction of PD brain homogenate, [^3H]-1000 3.0 nM, Kd 0.90 nM, read-out: α-synuclein Tissue Ki (Assay 1)
T1 construct: tissue Analytic Biological Services Inc; host or cells: human PD temporal cortex grey matter, Triton X-100 insoluble pellet

[2] = molecular target: aggregated beta amyloid in AD tissue (Homo sapiens, UniProt P05067); experiment: Competitive radioligand binding to pathological aggregated beta amyloid in AD tissue (Assay 2), displacement of [^3H]-105; settings: Aβ-rich AD frontal cortex homogenate, [^3H]-105, Kd 11.0 nM
Sequence of aggregated beta amyloid in AD tissue (P05067 672-711 limits assumed): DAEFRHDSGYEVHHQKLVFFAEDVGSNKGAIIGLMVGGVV
Experimental: Frozen human brain samples of Alzheimer's disease (AD) were purchased from Analytic Biological Services Inc. The samples were post-mortem tissue from donors with clinical diagnosis of AD and much of the white matter was dissected out of the frontal cortex in order to enrich the tissue preparations for gray matter. Brain homogenates of gray matter enriched frontal cortex were prepared by homogenizing the tissue in ice cold Phosphate Buffered Saline (PBS), pH 7.4 at 80 mg wet weight tissue per 1 ml for 45 seconds at 4° C., on setting 16 of Polytron. The homogenate was further diluted with ice cold PBS to 30 mg wet weight tissue per 1 ml and homogenized for an additional minute as described above. Homogenates were aliquoted in 5 ml/tube and stored at −70° C. until use.
Radioligand [^3H]-105, prepared as described in ACS Med. Chem. Lett., Vol. 2, pages 498-502, was used in this assay.
For Assay 2 unlabeled test compounds were dissolved in DMSO at 10 mM. Dilutions of tests compounds to various concentrations were made in 100% DMSO at 1000× final assay concentration and 0.225 μl aliquots were dispensed into assay plates. Brain homogenates were diluted to 0.5 mg/ml from original 30 mg/ml volume in Assay Buffer, and 200 μl were added to the assay plate for a final concentration of 100 ug wet weight/assay well. [^3H]-105 was prepared at 10× final concentration in Assay Buffer plus 20% DMSO and 25 μl was added to the assay plate for final assay concentration of 3.0 nM. The plates were incubated at 37° C. for 90 minutes. Unbound and bound ligand were separated by filtration of bound onto GF/B filter plates (pre-treated for 30 min with 0.1% PEI) using a Packard Filtermate and washing away unbound with 2.5 mil ice cold 5 mM Tris at pH 7.4. Filter plates were dried for 1 hr at 57° C. and 50 μl Microscint was added to each well of the plate. The plates were counted for ^3H cpm for 1 min per well using PerkinElmer TopCount.

[3] = molecular target: human Parkinson's Disease tissue homogenates (Homo sapiens, UniProt P37840); experiment: Hot saturation binding of [^3H]-2 in human PD cerebral cortex homogenates; settings: PD Cortex (n = 5)
Experimental: (§1) To assess presence of alpha synucleinopathy (Lewy body, LB and Lewy neurites, LN) in the tested human brain samples, the adjacent human PD brain slices were used for Autoradiography (ARG) and Immunihistochemistry (1HC) studies. ARG was done using radio-labelled compounds which bind to LB and LN of PD brain sections. 1HC was performed with antibodies for LB & LN (LB509), Aβ (6E10) and p-tau (AT8). Tissue homogenate binding was performed using human PD brain homogenates of cerebral cortex. Human brains from donor without neurological disorder were used as control in the same study.
The frozen human brain samples of Parkinson's disease (PD) were provided by Banner Sun Health Institute (USA) and Sydney Brain Bank (Australia) through collaboration with Michael J Fox Foundation (MJFF). […]
[^3H]-2 was synthesized by Radio Compound Labelling Synthesis Group at Merck. […] Total binding was defined in the absence of competing compound, and non-displaceable binding was determined in the presence of 1 μM unlabeled self-block. […]
Incubation was carried out at 37° C. for 120 minutes, and then the assay samples were filtered onto GF/C filters using Skatron 12 well harvester, washing on setting 5-5-5 (~3×2 ml) ice cold buffer (Tris, pH 7.5). […] Add liquid scintillation fluid (2 mL Ultima Gold) into each vial, allow to soak into filters for 4 hours and counted in on Perkin Elmer Tri-Carb 2900TR for 1 minute. […]

[4] = molecular target: T2, alpha-synucleinopathy of PD brain (Homo sapiens, UniProt P37840); experiment: In vitro autoradiography of [^3H]-2 on PD brain sections with IHC comparison; format: binding; settings: PD brain amygdala section, 3 nM radioligand
T2 construct: They are post-mortem tissue from donors with clinical diagnosis of PD or non-PD; tissue Banner Sun Health Institute; Sydney Brain Bank; Analytic Biological Services Inc; Discovery Life Science; host or cells: human PD cerebral cortex homogenates (A4); human PD amygdala cryosections (A5)
Experimental: as §1
The frozen human brain samples of Parkinson's disease (PD) were provided by Banner Sun Health Institute (USA) and Sydney Brain Bank (Australia) through collaboration with Michael J Fox Foundation (MJFF). Additional PD and non-PD brain samples were purchased from vendors (Analytic Biological Services Inc., ABS, and Discovery Life Science, DLS). […] Total binding of radioligand in a brain slice was defined in the absence of competitor, and non-displaceable binding (NDB) was determined in the presence of competitor (1.0 μM unlabeled selfblock). […] After three weeks exposure, the plates were scanned in Amersham Typhoon Imager, and the scanned images were analyzed using MCID 7.1 software. [^3H]-microscales (Amersham Biosciences, GE), were used for quantification of radioligand binding density. […]

[5] = [^11C]-2 PET imaging in rhesus monkey; format: in vivo; settings: IV, averaged over 30-90 minutes post injection
Experimental: A fasted rhesus monkey (7-11 kg) is anesthetized with ketamine I.M. (15 mpk) and the monkey is placed in the PET camera bed. An I.V, catheter is inserted into the right saphenous vein. For arterial sampling, the right femoral area is aseptically prepared and an arterial catheter is placed and fixed with sutures.
Subsequent anesthesia is maintained with Propofol. Induction dose is 5 mg/kg I.V., followed by an infusion at 0.4-0.6 mg/kg/min for the duration of the scanning procedure. The animal is intubated and positioned inside the camera gantry supine, head first. Animal is maintained on ventilated medical grade air:oxygen gas mixture at approximately 23 respirations per minute for the duration of the study. Ventilation I:E ratio, volume and rate of respiration is adjusted to maintain CO2 levels about 40 mmHg and SpO2 levels 95 to 100%. A temperature probe, pulse oximeter, non-invasive blood pressure cuff, and end tidal CO2 monitor are connected. […]
Whole blood samples are collected via arterial catheter into Heparin tubes for determination of radioactivity in whole blood and plasma. Samples are centrifuged and 20 μl whole blood and plasma are counted 20, 40, 80, 100, 120, and 150 seconds post PET ligand injection. Samples of blood (0.8 ml) are taken for metabolite correction and determination of radioactivity in plasma and whole blood at 3, 5, 15, 30, 60, and 90 minutes. […]

SMILES | Selectivity ratio (Assay 2/Assay 1) [1] | Ki [1] | Ki [2] | distribution in monkey brain (PET image) [5] | Bmax [3] | autoradiographic binding versus LB509 and AT8 immunoreactivity [4]
Cn1cc(-c2ncc(C#Cc3cnc(N4CCN(c5ncncn5)[C@@H](COCCOCCF)C4)nc3)cn2)cn1 [Example 78, (R)-2-(2-((2-(2-fluoroethoxy)ethoxy)methyl)-4-(5-((2-(1-methyl-1H-pyrazol-4-yl)pyrimidin-5-yl)ethynyl)pyrimidin-2-yl)piperazin-1-yl)-1,3,5-triazine] | 753 | 1.59 nM | ≥ 1200 nM |  |  | 
COCCOC[C@H]1CN(c2ncc(C#Cc3ccc(-n4ccnc4)nc3)c(F)n2)CCN1c1ncncn1 [Example 80, (R)-2-(4-(5-((6-(1H-imidazol-1-yl)pyridin-3-yl)ethynyl)-4-fluoropyrimidin-2-yl)-2-((2-methoxyethoxy)methyl)piperazin-1-yl)-1,3,5-triazine] | 794 | 1.51 nM | ≥ 1200 nM |  |  | 
[3H]C([3H])([3H])OC[C@H]1CN(c2ncc(C=Cc3ccc(-n4ccnc4)nc3)cn2)CCN1c1ncccn1 [[^3H]-2, [^3H]-(R,E)-5-(2-(6-(1H-imidazol-1-yl)pyridin-3-yl)vinyl)-2-(3-(methoxymethyl)-4-(pyrimidin-2-yl)piperazin-1-yl)pyrimidine] |  |  |  |  | 17.0 ± 5.2 nM | specific binding

Second part, led by results:

Selectivity ratio (Assay 2/Assay 1) [1] | Ki [1] | Ki [2] | distribution in monkey brain (PET image) [5] | SMILES | Bmax [3] | autoradiographic binding versus LB509 and AT8 immunoreactivity [4]
1312 | 0.915 nM | ≥ 1200 nM |  | FCCOC[C@H]1CN(c2ncc(C#Cc3ccc(N4CCn5cnnc5C4)nc3)cn2)CCN1c1ncncn1 [Example 75, (R)-7-(5-((2-(3-((2-fluoroethoxy)methyl)-4-(1,3,5-triazin-2-yl)piperazin-1-yl)pyrimidin-5-yl)ethynyl)pyridin-2-yl)-5,6,7,8-tetrahydro-[1,2,4]triazolo[4,3-a]pyrazine] |  | 
705 | 1.7 nM | ≥ 1200 nM |  | COC[C@H]1CN(c2ncc(C#Cc3ccc(-c4cnn(CCOCCF)c4)nc3)cn2)CCN1c1ncncn1 [Example 77, (R)-2-(4-(5-((6-(1-(2-(2-fluoroethoxy)ethyl)-1H-pyrazol-4-yl)pyridin-3-yl)ethynyl)pyrimidin-2-yl)-2-(methoxymethyl)piperazin-1-yl)-1,3,5-triazine] |  | 
840 | 1.43 nM | ≥ 1200 nM |  | Cn1cc(-c2ncc(C#Cc3cnc(N4CCN(c5ncccn5)[C@@H](COCCOCCOCCF)C4)nc3)cn2)cn1 [Example 82, (R)-2-(3-((2-(2-(2-fluoroethoxy)ethoxy)ethoxy)methyl)-4-(pyrimidin-2-yl)piperazin-1-yl)-5-((2-(1-methyl-1H-pyrazol-4-yl)pyrimidin-5-yl)ethynyl)pyrimidine] |  | 
 |  |  | suitable distribution | [11CH3]OC[C@H]1CN(c2ncc(/C=C/c3ccc(-n4ccnc4)nc3)cn2)CCN1c1ncccn1 [[^11C]-2] |  | 
